From US9075071B1, “Methods for diagnosis and treatment of cancer” (University of Mississippi Medical Center, priority 2012, dated 2015)
Counter-ions that a name gives are not always drawn. Peptide text beside a SMILES is read from it. * marks the point of attachment. Cbz = O=C(OCc1ccccc1)*

Legend:
[1] = test system: induced Gem9 cells (geminin overexpressing); assay: Metaphase chromosome spread, chromosome condensation; format: cell-based, human
Protocol: (§1) […] Cells were then trypsinized and washed and gently resuspended in PBS. 10 ml of 0.075M KCl was drop wise added and the cells were incubated at 37° C. (in a water bath) for 5-10 mins. Cells were then centrifuged at 900 rpm for 5 minutes and KCl was removed. 5 ml of freshly prepared fixative (3:1 Methanol/Acetic acid) was added drop wise to the cells and carefully mixed. Cells were centrifuged at 900 rpm for 5 minutes and the fixative was removed. This step was repeated 2 more times. Finally, all but 300 μl of the fixative media was removed and cells were dropped from approximately 18 inches onto an angled, humidified microscope slide. Slides were air-dry for at least 10 mins and cells were stained with propidium iodide (PI) or Giemsa.

uninduced Gem9 cells = assay: as above; format: cell-based, human; conditions: 10 μM colcemid 1 h
Protocol: as §1

HME cells = assay: Cell cycle progression, PI labeling and FACS; format: cell-based, human; conditions: for effect on cell cycle progression: normal HME cells, 24 h, vs DMSO, ZM447439 5 μM, Nocodazole 250 ng/ml, Taxol 10 μM
Protocol: (§2) Breast cancer cell lines were maintained in RPMI medium (Invitrogen, Carlsbad, Calif.) supplemented with 10% FBS and antibiotics. Maintenance of HME cells was performed as described previously. Cells were treated with 5 μM […] (Toronto Research Chemicals Inc., North York, ON), 100 ng/ml colcemid (Sigma, St. Louis, Mo.), 250 ng/ml Nocodazole (Sigma), 10 μM Taxol (Sigma). PI or FITC-conjugated anti-BrdU FACS analysis was performed as in [20]. Annexin-V was performed according to manufacturer's instructions (BD Biosciences, 556547, San Jose, Calif.).
(§3) To evaluate that in detail, HME (or Gem9−Dox) and induced (72 h) Gem9 cells were incubated with 5 μM of ZM447439 (a specific and potent inhibitor of AurB) for an additional 24 h. To measure the effect of ZM447439 on cell cycle progression aliquots from each culture were labeled with PI and analyzed by FACS.
(§4) To evaluate whether these effects were restricted to AurB inhibitors or could be seen with drugs that alter the integrity of the microtubules apparatus as well, HME and induced Gem9 cells were treated with DMSO (control), Nocodazole (a microtubules depolymerizing agent) or Taxol (a microtubules stabilizing agent) for another 24 h. […] However, both treatments also had modest effect on geminin overexpression cells (FIGS. 9C and 9D).
(§5) Low number of dying cells was detected in parental or Gem9 cells in the absence of Dox (FIGS. 13E/1 and 13E/5, 13F/1 and 13F/5 and 13G) or in HME cells in the presence of Dox (FIGS. 13E/2 and 13E/6, 13F/2 and 13F/6 and 13G). […] It was thought that degradation of geminin following c-Abl silencing or inactivation promoted cell death in geminin overexpressing and not normal cells, at least in part, because cells became addicted to high levels of geminin.

[2] = test system: induced Gem9 cells (geminin overexpressing HME cells); assay: Cell cycle progression, PI labeling and FACS; format: cell-based, human; conditions: Gem9 induced 72 h; for effect on cell cycle progression: then drug 24 h, vs DMSO, ZM447439 5 μM, Nocodazole 250 ng/ml, Taxol 10 μM
Protocol: as §2, §3, §4, §5

p-(S10)-H3 = assay: FITC-anti-p-H3-(S10) labeling and FACS; format: cell-based, human; conditions: imatinib 10 μM 24 h, c-Abl silencing 72 h
Excerpt: Diminution of (S10)-H3 phosphorylation leads to chromosome condensation failure, lack of chromosome segregation and induction of aneuploidy (Giet et al., 2001). […] Aliquots of each culture were then fixed, labeled with FITC-anti-p-H3-(S10) specific antibody and analyzed by FACS.

induced Gem9 cells [3] = assay: PI / FITC-anti-BrdU FACS, tetraploid/aneuploid cells; format: cell-based, human; conditions: Gem9 induced 72 h (approximately 35% without treatment); imatinib 10 μM last 24 h, c-Abl silencing 72 h
Protocol: BrdU (20 μM) was added to all cultures during the last 24 h and cultures were collected, labeled with PI and FITC-anti-BrdU antibody and analyzed by FACS.

geminin protein = assay: Geminin level by western blot of sonicated extracts; format: cell-based, human
Protocol: To study the consequence of silencing or inactivating c-Abl on geminin overexpressing cells, experiments were first undertaken to analyze what happens to geminin protein following c-Abl silencing or inactivation. […] Another Dox treated set of cells were transfected with c-Abl dominant negative construct (i.e. K209R, see Srinivasan and Plattner, 2006) during the last 48 h. Sonicated extracts were then prepared from all cultures and geminin level was measured using western blot analysis. […] Similar effects were also observed in cells endogenously overexpressing geminin.

induced Gem9 cells [4] = assay: Dying cells under light microscope and TUNEL; format: cell-based, human; conditions: Gem9 induced 96 h; imatinib 10 μM last 48 h, c-Abl silencing 96 h
Excerpt: (§6) The Fluorescein FragEL™ DNA Fragmentation Detection kit (Calbiochem) was used according to the supplier's protocol.
as §5

parental HME cells = assay: Dying cells under light microscope and TUNEL; format: cell-based, human; conditions: imatinib 10 μM last 48 h, c-Abl siRNA 96 h
Excerpt: as §6, §5

Gem9/LT mammary tumors = assay: Treatment of orthotopic (mammary) geminin-driven tumors in SCID mice; format: in vivo, mouse
Protocol: (§7) All animal experiments were approved by the University of Hawaii IACUC committee and University of Mississippi Medical Center IACUC committee. Six- to eight-week-old anaesthetized immune-compromised athymic SCID (NOD.CB17-Prkdc^scid/J, Jackson Laboratory) mice were injected with human mammary epithelial (HME) cells (5×10^6) resuspended in 200 μl of HME medium/matrigel (1:1) using a 25-gauge needle. Tumor initiation was defined as the time when tumors were 3 mm in diameter. Mice were sacrificed when the tumors grew to greater than 1.5 cm in diameter or after 12 wks of monitoring. Tumor volume was calculated with the formula 4/3πr^3 (where r is the tumor radius). At the end of the experiments tumors were dissected out, weighed and then fixed in formalin, and subsequently cut at 4 μm for histological and immunohistochemical analysis.
(§8) Tumor formation was analyzed with IVIS luciferase machine (Xenogen, Alameda, Calif.) weekly and tumor size was measured every third day by calipers. To analyze tumor formation using the in vivo system, mice were intraperitoneally injected using a 30G needle with 100 μl of D-luciferin solution (Xenogen) prepared at 15 mg/mL in PBS. […]
(§9) Geminin overexpressing cells were injected subcutaneously or orthotopically (in mammary gland) in SCID mice as described above. […] Mice were treated for 5 days and were rested for 2 days and tumor size was measured daily using calipers. […]

[5] = test system: Gem9/LT subcutaneous tumors; assay: Treatment of subcutaneous geminin-driven tumors in SCID mice; format: in vivo, mouse; conditions: imatinib 50 mg/kg/day, day 12
Protocol: as §7, §8, §9

SCID mice = conditions: mouse, in vivo
Protocol: Geminin overexpressing cells were injected subcutaneously or orthotopically (in mammary gland) in SCID mice as described above. When tumors reached 0.5-0.75 cm^3 in volume the treatments were initiated. […] Mice were treated for 5 days and were rested for 2 days and tumor size was measured daily using calipers. At the end of the experiments tumors were dissected out, weighed and fixed in formalin, and cut at 4 μm for histological and immunohistochemical analysis.

[6] = test system: induced Gem9 (Gem9+Dox) cells; assay: Cell survival, PI/annexin V labeling and FACS; format: cell-based, human; conditions: Gem9 induced 72 h, then drug 24 h; ZM447439 5 μM, Nocodazole 250 ng/ml
Protocol: as §2
(§10) To measure the effect on ZM447439 on cell survival, aliquots from each culture were labeled with PI/annexin V and analyzed by FACS. […] Indeed, in ZM447439 treated cells only 40±5% of the cells were PI^−/V^−, and 41±7% were PI^+/V^− and 20±6% were PI^−/V^++PI^+/V (FIG. 9B). […] Indeed, in ZM447439 treated cells 66±4% of the cells were PI^−/V^−, 24±3% were PI^+/V^− and 10±3% were PI^−/V^++PI^+/V^+ (FIG. 9E).

[7] = test system: uninduced Gem9 (Gem9-Dox, HME) cells; assay: Cell survival, PI/annexin V labeling and FACS; format: cell-based, human; conditions: 24 h, ZM447439 5 μM, Nocodazole 250 ng/ml
Protocol: as §2, §10

leukemia cells = conditions: cited from earlier work

For `CN[C@H]1CCc2cc(OC)c(OC)c(OC)c2-c2ccc(OC)c(=O)cc21` [colcemid], the chromosome condensation ([1]; Gem9 with Dox 7 days, 10 μM colcemid 1 h) was “failed to condense the chromosomes” and the chromosome condensation (uninduced Gem9 cells) was “induced condensation”.

With `Cc1ccc(NC(=O)c2ccc(CN3CCN(C)CC3)cc2)cc1Nc1nccc(-c2cccnc2)n1` [imatinib, imatinib mesylate] the “effect on cell cycle (PI FACS)” value (HME cells; HME cells, imatinib 10 μM last 24 h, c-Abl silencing 72 h) was “induced G1-arrest”, the “effect on cell cycle (PI FACS), sub-G1 and >4N cells” value ([2]; imatinib 10 μM last 24 h, c-Abl silencing 72 h) was “induced significant increase in sub-G1 and reduced the level of >4N cells” and the “p-(S10)-H3-positive cells” value (p-(S10)-H3; induced Gem9 cells (approximately 2% without treatment)) was “approximately 13%”. The “p-(S10)-H3-positive cells” value (p-(S10)-H3; parental HME cells) was “reduced the percentage of p(S10)-H3-positive cells”, the chromosome condensation ([1]; Gem9 with Dox 7 days plus colcemid, imatinib 10 μM last 24 h, c-Abl silencing last 72 h) was “restored chromosome condensation” and the “cells with greater than 4N DNA content (tetraploid/aneuploid)” value (induced Gem9 cells [3]) was “approximately 6%”. For the same compound, the “endogenous geminin protein level” value (geminin protein; HME cells, Dox 72 h, imatinib 10 μM last 24 h, c-Abl silencing 72 h) was “Significant reduction”, the geminin protein level (geminin protein; MCF7 (ER+) breast cancer cells, imatinib 10 μM or c-Abl silencing) was “significantly reduced the level of geminin protein” and the geminin protein level (geminin protein; MDAMB231 (ER-) breast cancer cells, imatinib 10 μM or c-Abl silencing) was “significantly reduced the level of geminin protein”. For the same compound, the “overexpressed geminin protein level” value (geminin protein; induced Gem9 cells, Dox 72 h, imatinib 10 μM last 24 h, c-Abl silencing 72 h) was “Significant reduction”, the “number of dying cells (light microscope, TUNEL+)” value (induced Gem9 cells [4]) was “high number of dying cells” and the “number of dying cells (light microscope, TUNEL+)” value (parental HME cells) was “Low level of dying cells”. For the same compound, the “mammary tumor size compared with no treatment” value (Gem9/LT mammary tumors; imatinib 50 mg/kg/day) was 5-10 fold, the “killing of geminin-driven tumors (tumor size)” value (Gem9/LT mammary tumors; start at 0.5 to 0.7 cm^3, imatinib 50 mg/kg/day, doxorubicin 5 mg/kg/day, 14 days) was “as effective in killing geminin-driven tumors as doxorubicin” and the “subcutaneous tumors after treatment” value [5] was “barely detectable”.

With `COc1cccc2c1C(=O)c1c(O)c3c(c(O)c1C2=O)C[C@@](O)(C(=O)CO)C[C@@H]3O[C@H]1C[C@H](N)[C@H](O)[C@H](C)O1` [doxorubicin] the “toxicity to the mice” value (SCID mice) was “adverse side effects including death”.

With `CC(C)C[C@@H](C=O)NC(=O)[C@H](CC(C)C)NC(=O)[C@H](CC(C)C)NC(=O)OCc1ccccc1` [MG132] (Cbz-Leu-Leu-Leu-aldehyde) the geminin protein level (geminin protein; HME as well as induced Gem9 (72 h) cells, 10 μM MG132 together with 10 μM imatinib, last 24 h) was “an increase instead of a decrease”.

For `CC(=O)O[C@H]1C(=O)[C@@]2(C)[C@H]([C@H](OC(=O)c3ccccc3)[C@]3(O)C[C@H](OC(=O)[C@H](O)[C@@H](NC(=O)c4ccccc4)c4ccccc4)C(C)=C1C3(C)C)[C@]1(OC(C)=O)CO[C@@H]1C[C@@H]2O` [Taxol], the “effect on cell cycle progression” value (HME cells) was “triggered accumulation of normal HME cells in G2/M phase, followed by tetraploidy and then cell death” and the “effect on cell cycle progression” value [2] was “modest effect”.

For `COc1cc2c(Nc3ccc(NC(=O)c4ccccc4)cc3)ncnc2cc1OCCCN1CCOCC1` [ZM447439], the “effect on cell cycle progression” value (HME cells) was “triggered accumulation of normal HME cells in G2/M phase followed by tetraploidy and then cell death”, the “effect on cell cycle progression” value [2] was “little effect” and the “alive cells (PI-/V-)” value [6] was 66±4%. The “apoptotic cells (PI-/V+ + PI+/V+)” value [6] was 10±3%, the “necrotic cells (PI+/V-)” value [6] was 24±3% and the “alive cells (PI-/V-)” value [7] was 40±5%. For the same compound, the “apoptotic cells (PI-/V+ + PI+/V+)” value [7] was 20±6% and the “necrotic cells (PI+/V-)” value [7] was 41±7%.

In the case of `COC(=O)Nc1nc2ccc(C(=O)c3cccs3)cc2[nH]1` [Nocodazole], the “effect on cell cycle progression” value (HME cells) is reported as “triggered accumulation of normal HME cells in G2/M phase, followed by tetraploidy and then cell death”, the “effect on cell cycle progression” value [2] is reported as “modest effect” and the “alive cells (PI-/V-)” value [6] is reported as 78±6%. For the same compound, the “apoptotic cells (PI-/V+ + PI+/V+)” value [6] was 10±2%, the “necrotic cells (PI+/V-)” value [6] was 12±3% and the “alive cells (PI-/V-)” value [7] was 75±5%. The “apoptotic cells (PI-/V+ + PI+/V+)” value [7] was 20±5% and the “necrotic cells (PI+/V-)” value [7] was 6±4%.

In the case of `CCN(CCCOc1ccc2c(Nc3cc(CC(=O)Nc4cccc(F)c4)n[nH]3)ncnc2c1)CCOP(=O)(O)O` [AZD1152], the “effect on DNA content of cells” value (leukemia cells) is listed as “induce accumulation of cells with greater than 4N DNA content”.
